This note sets out measurements from patent publication US6187793A, “7-[(Piperidin-1-YL)-Propoxy]-chromen-4-one derivatives, their preparation and their pharmaceutical use” (Ferrer Internacional, S.A., priority 1997, dated 2001).

Data set [1] relates to apomorphine-induced climbing behaviour. Kind of data set: inhibition test of apomorphine-induced climbing behaviour. Type of data set: in vivo, male Swiss mice. The conditions noted are these: Mus musculus, 1 h, read-out: Climbing ID50. The protocol:
For the practical performance of this experiment, male Swiss mice weighing 22-24 g were used. One week prior to experiment, animals were kept in our facilities at a temperature of 20-22° C. and 12/12 h light-dark cycle, and had free access to food and water. Two hours prior to experiment, the animals were placed in individual cages without access to food.
Animals were administered orally with test drug or 0.25% agar at time 0. After 60 minutes, apomorphine was subcutaneously injected at a dose of 1 mg/kg, and after further 70 minutes the animal's behaviour was assessed. Two additional assessments were performed at 10-min intervals.
(§1) For assessment, each animal was placed on the bottom of a small upright box ([…]). The walls of the box were made of translucent methacrylate except one of the lateral surfaces (7.5 cm wide) which was a 3-mm wire mesh. The position of the animal was scored for 2 minutes according to the following criteria: 0=four paws on the floor; 1=three paws on the floor; 2=two paws on the floor; 3=one paw on the floor; and 4=four paws holding the wire mesh. If an animal keeps several positions within the 2-min observation, the seconds elapsed in each position will be recorded. Finally, mean scoring was calculated.

A short description of a further data set: in vivo. Particulars: rat. The protocol: as §1
A short description of data set [2]: therapeutic index (catalepsy ED50 / climbing ID50). Particulars: for selectivity ratio: in vivo, po; for therapeutic index versus compound of Example 2' of ES 9600323 and haloperidol: in words, from Table 3. The protocol: as §1
The target of a further data set is T1, histamine H1 receptors (Cavia porcellus, UniProt P31389).
T1 construct: incubation of guinea-pig cerebellum membranes; from tissue; host or cells: guinea-pig cerebellum membranes
T1 sequence (P31389 whole entry): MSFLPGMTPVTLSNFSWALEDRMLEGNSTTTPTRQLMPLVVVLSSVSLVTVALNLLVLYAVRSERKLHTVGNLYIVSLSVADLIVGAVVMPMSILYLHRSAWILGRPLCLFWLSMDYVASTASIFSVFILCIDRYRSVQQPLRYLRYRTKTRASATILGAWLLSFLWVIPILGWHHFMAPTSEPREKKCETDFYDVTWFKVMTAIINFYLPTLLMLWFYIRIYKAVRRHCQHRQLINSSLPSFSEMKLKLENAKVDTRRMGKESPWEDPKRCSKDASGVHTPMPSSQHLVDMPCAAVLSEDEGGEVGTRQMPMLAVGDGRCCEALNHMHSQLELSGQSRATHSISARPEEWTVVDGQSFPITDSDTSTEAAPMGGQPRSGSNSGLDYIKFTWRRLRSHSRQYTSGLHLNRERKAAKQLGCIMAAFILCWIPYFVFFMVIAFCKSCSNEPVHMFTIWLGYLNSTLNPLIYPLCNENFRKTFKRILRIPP
Description: biochemical. Format: binding, guinea-pig. The conditions noted are these: for potency as ligand of H1 receptors versus compound of Example 2' of ES 9600323 / potency as ligand of H1 receptors versus promethazine: in words, from Table 2. The protocol:
The bound radioactivity was separated by filtration (Whatman GF/B) in a Brandel Harvester. The amount of receptor-bound radioactivity present in the filters was determined using a Packard 1800TR counter. The specific binding was established with a 1 μM concentration of triprolidine.

In a further data set the target is D2 receptors (Rattus norvegicus, UniProt P61169). Description: specific binding to D2 receptors ([3H]spiperone, rat striatum membrane). Particulars: in words, from Table 1.
Chain of D2 receptors (P61169 whole entry): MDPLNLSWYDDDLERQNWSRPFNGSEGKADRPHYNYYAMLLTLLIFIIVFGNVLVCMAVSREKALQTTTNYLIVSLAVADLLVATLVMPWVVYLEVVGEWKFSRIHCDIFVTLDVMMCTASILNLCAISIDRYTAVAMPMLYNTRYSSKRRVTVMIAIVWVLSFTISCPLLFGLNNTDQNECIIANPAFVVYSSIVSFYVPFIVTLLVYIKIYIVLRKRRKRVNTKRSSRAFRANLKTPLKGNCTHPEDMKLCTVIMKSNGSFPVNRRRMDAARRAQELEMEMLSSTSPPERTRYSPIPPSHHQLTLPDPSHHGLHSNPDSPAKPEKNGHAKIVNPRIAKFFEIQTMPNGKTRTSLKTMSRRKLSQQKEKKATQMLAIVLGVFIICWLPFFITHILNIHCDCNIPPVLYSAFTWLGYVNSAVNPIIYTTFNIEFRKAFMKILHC
A further data set concerns the target T2, 5-HT2A receptors (Rattus norvegicus, UniProt P14842).
T2 construct: membrane corresponding to 1 mg of rat cortex; from tissue; host or cells: rat cortex membrane
Kind of data set: specific binding to 5-HT2A receptors ([3H]ketanserin, rat cortex membrane). The conditions noted are these: for IC50: [3H]ketanserin 0.5 nM, rat cortex, 30 min, 35° C., pH 7.4; for potency as ligand of 5-HT2A receptors versus compound of Example 2' of ES 9600323: in words, from Table 1.

Where [3] appears, read: oral, male Swiss mice, apomorphine 1 mg/kg s.c. after 60 minutes.

The structures appear in SMILES notation. Entries after “also recorded” stand apart in the source; their conditions may differ. Where two headings read alike, the source gives them in different places.

T2 sequence (P14842 whole entry): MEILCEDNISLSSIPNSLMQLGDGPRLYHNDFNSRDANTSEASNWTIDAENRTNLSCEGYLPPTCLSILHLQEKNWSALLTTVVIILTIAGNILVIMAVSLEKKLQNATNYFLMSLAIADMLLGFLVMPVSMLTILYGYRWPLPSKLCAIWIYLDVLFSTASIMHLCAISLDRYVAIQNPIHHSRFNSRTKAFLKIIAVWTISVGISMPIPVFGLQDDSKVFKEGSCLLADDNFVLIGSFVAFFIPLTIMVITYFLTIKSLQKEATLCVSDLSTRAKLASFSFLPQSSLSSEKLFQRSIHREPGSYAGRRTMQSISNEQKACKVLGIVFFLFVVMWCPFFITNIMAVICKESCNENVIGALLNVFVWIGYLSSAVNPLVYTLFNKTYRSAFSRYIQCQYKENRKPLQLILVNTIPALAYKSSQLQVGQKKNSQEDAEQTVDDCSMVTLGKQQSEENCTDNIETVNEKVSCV

As a reminder, the IC50 is the point on the concentration scale where inhibition reaches its midpoint. For `COCc1coc2cc(OCCCN3CCC(c4noc5cc(F)ccc45)CC3)ccc2c1=O.Cl` [Example 3, 7-[3-[4-(6-fluorobenzo[d]isoxazole-3-yl)piperidin-1-yl]propoxy]-3-methoxymethyl-chromen-4-one hydrochloride], the ED50 in data set [1] (setting [3]) came to 0.21 mg/kg. Besides, in the data set “in vivo” (po), the TD50 was determined as 6.79 mg/kg. For the same compound, in data set [2], the selectivity ratio is 32.3; the “therapeutic index versus compound of Example 2' of ES 9600323 and haloperidol” value is “higher therapeutic index”. Moreover, at histamine H1 receptors, inhibition was half-maximal at 0.339 nM (IC50) and the “potency as ligand of H1 receptors versus compound of Example 2' of ES 9600323” value is reported as “more potent”. For the same compound, the “potency as ligand of H1 receptors versus promethazine” value on histamine H1 receptors (hydrochloride) was “of the same order as promethazine; also recorded: greater than that of standard promethazine”.

As for `Cl.O=C(O)c1coc2cc(OCCCN3CCC(c4noc5cc(F)ccc45)CC3)ccc2c1=O` [Example 2, 7-[3-[4-(6-fluorobenzo[d]isoxazole-3-yl)piperidin-1-yl]propoxy]-4-oxochromene-3-carboxylic acid hydrochloride], at D2 receptors, the “potency as ligand of D2 receptors versus compound of Example 2' of ES 9600323” value was “more potent”. Also, on 5-HT2A receptors, the IC50 amounted to 0.594 nM and the “potency as ligand of 5-HT2A receptors versus compound of Example 2' of ES 9600323” value was “more potent”.

With `O=c1c(CO)coc2cc(OCCCN3CCC(c4noc5cc(F)ccc45)CC3)ccc12` [Ex. 2' (ES 9600323), reference compound], the ED50 in data set [1] (po) turned out to be 0.25 mg/kg. In the data set “in vivo” (in vivo), the TD50 was 3.8 mg/kg. For the same compound, the IC50 amounted to 3.08 nM on 5-HT2A receptors and 1.2 nM at histamine H1 receptors ([3H]-pyrilamine 1 nM, guinea-pig cerebellum, 25° C., 60 minutes, read-out: IC50, H1 receptors).

Take `O=C(CCCN1CCC(O)(c2ccc(Cl)cc2)CC1)c1ccc(F)cc1` [Haloperidol, haloperidol, reference compound]: the ED50 in data set [1] (setting [3]) amounted to 0.32 mg/kg. In the data set “in vivo” (in vivo), this compound had a TD50 of 2 mg/kg.

Turning to `Cl.O=c1cc(CO)oc2cc(OCCCN3CCC(c4noc5cc(F)ccc45)CC3)ccc12` [Example 6, 7-[3-[4-(6-fluorobenzo[d]isoxazole-3-yl)piperidin-1-yl]propoxy]-2-(hydroxymethyl)-chromen-4-one hydrochloride], in data set [1] (setting [3]), the ED50 came to 5.87 mg/kg. Moreover, the TD50 in the data set “in vivo” (po) was above 100 mg/kg. Besides, in data set [2], the selectivity ratio was above 17; the “therapeutic index versus compound of Example 2' of ES 9600323 and haloperidol” value is given as “higher therapeutic index”. At histamine H1 receptors, the IC50 was determined as 1.01 nM, the “potency as ligand of H1 receptors versus compound of Example 2' of ES 9600323” value is “more potent” and the “potency as ligand of H1 receptors versus promethazine” value is listed as “of the same order as promethazine”.

For the compound `O=Cc1coc2cc(OCCCN3CCC(c4noc5cc(F)ccc45)CC3)ccc2c1=O` [Example 1, 7-[3-[4-(6-fluorobenzo[d]isoxazole-3-yl)piperidine-1-yl]propoxy]-3-formyl-chromen-4-one], the “potency as ligand of D2 receptors versus compound of Example 2' of ES 9600323” value on D2 receptors was “more potent”. On 5-HT2A receptors, the IC50 came to 2.11 nM and the “potency as ligand of 5-HT2A receptors versus compound of Example 2' of ES 9600323” value is “more potent”.
